From US20170325459A1, “BICYCLIC COMPOUNDS AS PEST CONTROL AGENTS” (Bayer CropScience Aktiengesellschaft, priority 2014, published 2017)

Tests used:
[1] = log P by HPLC (OECD Guideline 117), method [a] acidic range pH 2.7; format: physicochemical
Protocol: (§1) The log P values were determined in accordance with OECD Guideline 117 (EC Directive 92/69/EEC) by HPLC (high-performance liquid chromatography) using reversed-phase (RP) columns (C18), by the following methods: [a] The LC-MS determination in the acidic range is carried out at pH 2.7 with 0.1% aqueous formic acid and acetonitrile (contains 0.1% formic acid) as eluents; linear gradient from 10% acetonitrile to 95% acetonitrile. [b] LC-MS determination in the neutral range is effected at pH 7.8 with 0.001 molar aqueous ammonium hydrogencarbonate solution and acetonitrile as eluents; linear gradient from 10% acetonitrile to 95% acetonitrile. Calibration is effected using unbranched alkan-2-ones (having 3 to 16 carbon atoms) with known log P values (log P values determined on the basis of the retention times by linear interpolation between two successive alkanones).

[2] = tested on: Tetranychus urticae; assay: Tetranychus urticae spray test, OP-resistant; format: in vivo; settings: application rate 500 g/ha, bean leaf discs, after 6 days
Protocol: Tetranychus urticae—Spray Test, OP-Resistant
(§2) Solvent: 78.0 parts by weight of acetone • • 1.5 parts by weight of dimethylformamide
(§3) Emulsifier: alkylaryl polyglycol ether
(§4) To produce a suitable active ingredient formulation, 1 part by weight of active ingredient is dissolved using the specified parts by weight of solvent and made up with water containing an emulsifier concentration of 1000 ppm until the desired concentration is attained. To produce further test concentrations, the formulation is diluted with emulsifier-containing water.
Discs of bean leaves (Phaseolus vulgaris) infested with all stages of the greenhouse red spider mite (Tetranychus urticae) are sprayed with an active ingredient formulation of the desired concentration.
After 6 days, the efficacy in % is determined. 100% meant that all the spider mites have been killed and 0% means that no spider mites have been killed.

[3] = log P by HPLC (OECD Guideline 117), method [b] neutral range pH 7.8; format: physicochemical
Protocol: as §1

[4] = tested on: Myzus persicae; assay: Myzus persicae spray test; format: in vivo; settings: application rate 500 g/ha, Chinese cabbage leaf discs, after 6 days
Protocol: Myzus persicae—Spray Test Solvent: 78 parts by weight of acetone • • 1.5 parts by weight of dimethylformamide Emulsifier: alkylaryl polyglycol ether To produce a suitable active ingredient formulation, 1 part by weight of active ingredient is dissolved using the specified parts by weight of solvent and made up with water containing an emulsifier concentration of 1000 ppm until the desired concentration is attained. To produce further test concentrations, the formulation is diluted with emulsifier-containing water. Discs of Chinese cabbage leaves (Brassica pekinensis) infested by all stages of the green peach aphid (Myzus persicae) are sprayed with an active ingredient formulation of the desired concentration. After 6 days, the efficacy in % is determined. 100% means that all the aphids have been killed and 0% means that none of the aphids have been killed.

[5] = tested on: Phaedon cochleariae; assay: Phaedon cochleariae spray test; format: in vivo; settings: application rate 500 g/ha, Chinese cabbage leaf discs, after 7 days
Protocol: Phaedon cochleariae—Spray Test
as §2, §3, §4
After 7 days, the efficacy in % is determined. 100% means that all the beetle larvae have been killed and 0% means that none of the beetle larvae have been killed.

[6] = reversed-phase (RP) C18 HPLC column

Row | chromatographic logP [1, 6] | chromatographic logP [3, 6] | Compound | logP[a] [1] | efficacy (spider mites killed) [2] | logP[b] [3] | efficacy (aphids killed) [4] | efficacy (beetle larvae killed) [5] | pest or weed control at 500 g/ha ([4]; Myzus persicae, foliar, 144 h, read-out: efficacy (aphids killed))
1 |  |  | Cc1ccccc1-c1ccc2nc(-c3cccnc3)sc2c1 [compound 2] | 4.08 | 90% | 4.24 | 100% |  | 
2 | 4.32 | 4.49 | Clc1cccc(-c2ccc3nc(-c4cccnc4)sc3c2)c1 [compound 7] |  |  |  |  | 83% | 100%
